“Also recorded” adds a separate entry of the source.
How the values were obtained:
HEK293 cells = conditions: 20 μM, 24 h incubation; cited from earlier work
[1] = chronic sunitinib cardiotoxicity study, two 28-day cycles with or without the invention (ECG, echocardiography, arterial pressure, body weight, troponin); format: in vivo, Hartley guinea pigs; conditions: for left ventricular / cardiac hypertrophy (cardiac weight): after 86 days (2 cycles) of treatment
[2] = Langendorff retrograde perfusion of hearts taken on Day 86 (left ventricle contractility and kinetics); design: species or system Hartley guinea pigs; conditions: Day 86, ex vivo Langendorff
Protocol: In FIG. 5B, on Day 86, the animals were euthanized and the hearts mounted onto a Langendorff retrograde perfusion system. A left ventricular pressure transducer was inserted into the left ventricle and recorded LV contraction amplitude and kinetics.
In FIG. 6, the pressure developed by the heart on Day 86 of treatment was measured ex-vivo in a Langendorff retrograde perfusion system.

| Structure (SMILES) | HEK293 cell viability (HEK293 cells) | mean arterial blood pressure ([1]; Day 86, invasive femoral artery catheter, anesthetized animals, sunitinib alone compared with sunitinib plus the invention) | left ventricular / cardiac hypertrophy (cardiac weight) [1] | left ventricular / cardiac hypertrophy (cardiac weight) ([1]; listed as Sunitinib) | QTc prolongation ([1]; as of Day 28, increasing steadily until Day 86, sunitinib 10 mg/kg/day, Bazett correction, n=6 per group) | Troponin I levels ([1]; blood, sunitinib alone compared with sunitinib plus the invention) | LV ejection velocity at the aortic valve (AoVMax) ([1]; cardiac echography, over the treatment) | left ventricular distension (end of diastole and end of systole) ([1]; echocardiography, over the treatment) | left ventricular distension (end of diastole and end of systole) ([1]; echocardiography, over the treatment, listed as Sunitinib) | left-ventricular fractional shortening ([1]; echocardiography, difference between groups significant after 86 days) | Troponin levels compared with intact animals ([1]; intact animals 0.05 ng/mL (data not shown)) | end-systolic / developed left ventricular pressure [2] | rate of contraction of the LV ([2]; LV pressure transducer) |
| --- | --- | --- | --- | --- | --- | --- | --- | --- | --- | --- | --- | --- | --- |
| COc1cc(/C=C/C(=O)CC(=O)/C=C/c2ccc(O)c(OC)c2)ccc1O [curcumin] | reduced | – | – | – | – | – | – | – | – | – | – | – | – |
| CCN(CC)CCNC(=O)c1c(C)[nH]c(/C=C2\C(=O)Nc3ccc(F)cc32)c1C [sunitinib] | – | Significantly higher | onset of hypertrophy | caused cardiac hypertrophy | 15 to 25 ms | significantly higher | lower; also recorded: gradual decrease | left-ventricular distention | greater LV distension | lower; also recorded: time-dependent loss | significantly greater | significantly lower | lower |

Source: patent US20190008878A1, “COMPOSITIONS AND METHOD FOR REDUCING CARDIOTOXICITY” (SignPath Pharma Inc., priority 2017, published 2019)
